Laboratory results published in article PMC8854719, “Phase 1A/1B dose-escalation and -expansion study to evaluate the safety, pharmacokinetics, food effects and antitumor activity of pamiparib in advanced solid tumours” (British Journal of Cancer, 2021).
Marks after values point to notes of the source that are not given here.

Assay: Safety and tolerability: adverse events, dose-limiting toxicities, MTD, RP2D (Phase 1A/1B)
Format: in vivo
Method: This was an open-label, Phase 1, dose-escalation/dose-expansion study, conducted across six study centres in Australia. The dose-escalation phase evaluated twice-daily (BID) and once-daily (QD) dosing, and the dose-expansion phase evaluated the BID RP2D from the dose-escalation phase and food effects (Fig. 1). The food-effects cohort comprised two sequences: fast followed by fed (sequence 1) and fed followed by fast (sequence 2). […] The decision to proceed to the next dose cohort was determined by the Safety Monitoring Committee and followed a modified 3 + 3 escalation scheme. […] When ≥2 DLTs occurred in the first 23 days of a dose level, the next lower dose level was declared the MTD. Safety was monitored and DLTs were assessed in all dose cohorts. […] The food-effects cohort investigated the effects of food on the PK of pamiparib in patients with advanced solid tumours.
The QD dosing regimen was added as an amendment to the protocol with the purpose of exploring the feasibility of a more convenient regimen.
Safety and tolerability were assessed throughout the study by monitoring adverse events (AEs), serious AEs, clinical laboratory measurements and physical examinations. Adverse events were categorised according to their severity (National Cancer Institute Common Terminology Criteria for Adverse Events v4.03) and relationship to the study treatment.

C[C@]12CCCN1CC1=NNC(=O)c3cc(F)cc4[nH]c2c1c34 [pamiparib]
Ascites, AE of any grade (20 mg BID (n = 3)): 0 (0.0) n (%) | Back pain, AE of any grade (20 mg BID (n = 3)): 0 (0.0) n (%) | Constipation, AE of any grade (20 mg BID (n = 3)): 0 (0.0) n (%) | Cough, AE of any grade (20 mg BID (n = 3)): 0 (0.0) n (%) | Decreased appetite, AE of any grade (20 mg BID (n = 3)): 0 (0.0) n (%) | Diarrhoea, AE of any grade (20 mg BID (n = 3)): 2 (66.7) n (%) | Dose-limiting toxicity (20 mg BID (n = 3)): 0 (0.0) n (%) | Dyspnoea, AE of any grade (20 mg BID (n = 3)): 1 (33.3) n (%) | Fatigue, AE of any grade (20 mg BID (n = 3)): 3 (100.0) n (%) | Headache, AE of any grade (20 mg BID (n = 3)): 1 (33.3) n (%) | Hypoalbuminemia, AE of any grade (20 mg BID (n = 3)): 0 (0.0) n (%) | Hypomagnesemia, AE of any grade (20 mg BID (n = 3)): 1 (33.3) n (%) | Hypophosphatemia, AE of any grade (20 mg BID (n = 3)): 0 (0.0) n (%) | Increased AST, AE of any grade (20 mg BID (n = 3)): 0 (0.0) n (%) | Muscle spasms, AE of any grade (20 mg BID (n = 3)): 0 (0.0) n (%) | Nausea, AE of any grade (20 mg BID (n = 3)): 2 (66.7) n (%) | Neutropenia, AE of any grade (20 mg BID (n = 3)): 0 (0.0) n (%) | Non-cardiac chest pain, AE of any grade (20 mg BID (n = 3)): 0 (0.0) n (%) | Pain in extremity, AE of any grade (20 mg BID (n = 3)): 1 (33.3) n (%) | Peripheral sensory neuropathy, AE of any grade (20 mg BID (n = 3)): 1 (33.3) n (%) | Pleural effusion, AE of any grade (20 mg BID (n = 3)): 0 (0.0) n (%) | Pyrexia, AE of any grade (20 mg BID (n = 3)): 0 (0.0) n (%) | Treatment-emergent AE (20 mg BID (n = 3)): 3 (100.0) n (%) | Treatment-emergent AE: Grade 3 or higher (20 mg BID (n = 3)): 1 (33.3) n (%) | Treatment-emergent AE: Leading to death (20 mg BID (n = 3)): 0 (0.0) n (%) | Treatment-emergent AE: Leading to dose interruption (20 mg BID (n = 3)): 3 (100.0) n (%) | Treatment-emergent AE: Leading to dose modification (20 mg BID (n = 3)): 3 (100.0) n (%) | Treatment-emergent AE: Leading to dose reduction (20 mg BID (n = 3)): 1 (33.3) n (%) | Treatment-emergent AE: Leading to treatment discontinuation (20 mg BID (n = 3)): 0 (0.0) n (%) | Treatment-emergent AE: Serious (20 mg BID (n = 3)): 1 (33.3) n (%) | Treatment-related AE (20 mg BID (n = 3)): 3 (100.0) n (%) | Treatment-related AE: Grade 3 or higher (20 mg BID (n = 3)): 1 (33.3) n (%) | Treatment-related AE: Leading to death (20 mg BID (n = 3)): 0 (0.0) n (%) | Treatment-related AE: Leading to dose interruption (20 mg BID (n = 3)): 1 (33.3) n (%) | Treatment-related AE: Leading to dose modification (20 mg BID (n = 3)): 1 (33.3) n (%) | Treatment-related AE: Leading to dose reduction (20 mg BID (n = 3)): 1 (33.3) n (%) | Treatment-related AE: Leading to treatment discontinuation (20 mg BID (n = 3)): 0 (0.0) n (%) | Treatment-related AE: Serious (20 mg BID (n = 3)): 0 (0.0) n (%) | Upper respiratory tract infection, AE of any grade (20 mg BID (n = 3)): 0 (0.0) n (%) | Urinary tract infection, AE of any grade (20 mg BID (n = 3)): 1 (33.3) n (%) | Vomiting, AE of any grade (20 mg BID (n = 3)): 2 (66.7) n (%) | Abdominal pain, AE of any grade (40 mg BID (n = 6)): 0 (0.0) n (%) | Anaemia, AE of any grade (40 mg BID (n = 6)): 2 (33.3) n (%) | Ascites, AE of any grade (40 mg BID (n = 6)): 1 (16.7) n (%) | Back pain, AE of any grade (40 mg BID (n = 6)): 2 (33.3) n (%) | Constipation, AE of any grade (40 mg BID (n = 6)): 1 (16.7) n (%) | Cough, AE of any grade (40 mg BID (n = 6)): 0 (0.0) n (%) | Decreased appetite, AE of any grade (40 mg BID (n = 6)): 0 (0.0) n (%) | Diarrhoea, AE of any grade (40 mg BID (n = 6)): 2 (33.3) n (%) | Dose-limiting toxicity (40 mg BID (n = 6)): 1 (16.7)^a n (%) | Dyspnoea, AE of any grade (40 mg BID (n = 6)): 0 (0.0) n (%) | Fatigue, AE of any grade (40 mg BID (n = 6)): 2 (33.3) n (%) | Headache, AE of any grade (40 mg BID (n = 6)): 2 (33.3) n (%) | Hypoalbuminemia, AE of any grade (40 mg BID (n = 6)): 0 (0.0) n (%) | Hypomagnesemia, AE of any grade (40 mg BID (n = 6)): 0 (0.0) n (%) | Hypophosphatemia, AE of any grade (40 mg BID (n = 6)): 1 (16.7) n (%) | Increased AST, AE of any grade (40 mg BID (n = 6)): 1 (16.7) n (%) | Muscle spasms, AE of any grade (40 mg BID (n = 6)): 0 (0.0) n (%) | Nausea, AE of any grade (40 mg BID (n = 6)): 5 (83.3) n (%) | Neutropenia, AE of any grade (40 mg BID (n = 6)): 2 (33.3) n (%) | Non-cardiac chest pain, AE of any grade (40 mg BID (n = 6)): 0 (0.0) n (%) | Pain in extremity, AE of any grade (40 mg BID (n = 6)): 0 (0.0) n (%) | Peripheral sensory neuropathy, AE of any grade (40 mg BID (n = 6)): 0 (0.0) n (%) | Pleural effusion, AE of any grade (40 mg BID (n = 6)): 0 (0.0) n (%) | Pyrexia, AE of any grade (40 mg BID (n = 6)): 0 (0.0) n (%) | Treatment-emergent AE (40 mg BID (n = 6)): 6 (100.0) n (%)
